Experimental data from patent publication US20210002231A1 (Centre National de la Recherche Scientifique, priority 2018, published 2021).
Starred links: 1 amine or outer side, 2 acyl side, 3 side chain; linkers in the order of their positions; H or OH if unused. Non-standard residues stand in square brackets, D forms with d. Residues, ends and D or L forms follow the SMILES beside them. *: point of attachment. Nva(5-(4-Bn-piperidin-1-yl)) = N[C@@H](CCCN1CCC(Cc2ccccc2)CC1)C(=O)O; X5 = O=C1[C@@H](N[*:1])Cc2ccccc2CN1CCCC(=O)[*:2]; X1 = O=C1[C@@H](N[*:1])Cc2ccccc2CN1CCC(=O)[*:2]; Tic(7-OH) = O=C(O)[C@@H]1Cc2ccc(O)cc2CN1; Dmt = Cc1cc(O)cc(C)c1C[C@H](N)C(=O)O; d(hArg) = N=C(N)NCCCC[C@@H](N)C(=O)O; Nicotinoyl = O=C(c1cccnc1)*; dOrn = NCCC[C@@H](N)C(=O)O; dNMeA = CN[C@H](C)C(=O)O; Nlys = NCCCCNCC(=O)O; βAla = NCCC(=O)O

Assays:
human MOPr [1] = target: T1, human MOPr (Homo sapiens, UniProt P35372); assay: cell-based; assay type: cell-based; set-up: expressed in transfected cells; HEK293-Glo20F cells (cAMP); details: for Emax: read-out: MOPr (cAMP) Emax; for MOPr-induced G protein activation: in words
Procedure: Stimulation by endogenous RF-amide peptides or test compounds for [^35S]-GTPγS binding to membranes from CHO cells expressing human NPFF1R or NPFF2R, were examined as reported. 1.6. Glo-Sensor cAMP Assay cAMP accumulation assay was essentially done as described with the following modifications: HEK293 cells stably expressing cAMP Glosensor-20F were used, with or without additional stable expression of each individual opioid receptor or NPFF1R. The cAMP responses were measured in presence of D-luciferin (1 mM).

human MOPr [2] = target: T1, human MOPr; assay: BRET1 β-arrestin-2 recruitment assay; assay type: cell-based; set-up: expressed in transfected cells; host or cells: HEK293 cells stably expressing eYFP-β-arrestin-2, transiently transfected with the Rluc8-MOP plasmid; details: for Emax: read-out: MOPr (β-arrestin-2) Emax; for β-arrestin-2 recruitment: in words;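 for Emax: Emax relative to maximal DAMGO-induced BRET as 100%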;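 for MOPr (β-arrestin-2) Emax: Emax relative to maximal DAMGO-induced BRET as 100%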
Procedure: Peak response amplitudes were normalized to basal and maximal (cells permeabilized with 20 μM digitonin) fluorescence levels. 1.8. β-Arrestin-2 recruitment assay The β-arrestin-2 recruitment assay was performed as described [34; 45] with minor modifications. Briefly, two days prior the experiment, HEK293 cells stably expressing eYFP-tagged β-arrestin-2 were transfected with the plasmid encoding Rluc8-MOP receptor. β-Arrestin-2 recruitment was measured at 37° C. in presence of 5 μM Coelenterazine H, 5 min after agonist addition.

[3] = Table 3B, read-out: MOPr (cAMP) EC50
[4] = Table 3B, — = non-detectable recruitment, read-out: MOPr (β-arrestin-2) EC50
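Throughout, for MOPr (cAMP) Emax: Emax relative to DAMGO as 100%.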

T1 sequence (P35372 whole entry): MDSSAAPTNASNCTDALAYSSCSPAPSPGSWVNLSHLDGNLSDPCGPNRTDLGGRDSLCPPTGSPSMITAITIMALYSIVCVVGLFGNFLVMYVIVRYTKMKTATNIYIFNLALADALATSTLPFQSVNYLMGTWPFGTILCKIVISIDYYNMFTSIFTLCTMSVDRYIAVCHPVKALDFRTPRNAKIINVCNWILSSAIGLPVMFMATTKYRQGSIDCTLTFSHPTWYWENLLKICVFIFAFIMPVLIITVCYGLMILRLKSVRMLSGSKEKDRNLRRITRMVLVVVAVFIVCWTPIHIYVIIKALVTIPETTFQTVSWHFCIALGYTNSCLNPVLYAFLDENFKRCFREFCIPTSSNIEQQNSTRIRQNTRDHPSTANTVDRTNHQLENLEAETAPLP

SMILES	EC50 (human MOPr [1]; [3])	Emax (human MOPr [1])	EC50 (human MOPr [2]; [4])	Emax (human MOPr [2])	MOPr-induced G protein activation (human MOPr [1])	β-arrestin-2 recruitment (human MOPr [2])	EC50 (human MOPr [1]; MOPr (cAMP) EC50, Table 3B)	EC50 (human MOPr [2])
Cc1cc(O)cc(C)c1C[C@H](N)C(=O)N(C)[C@H](C)C(=O)N[C@H]1Cc2ccccc2CN(CCC(=O)N[C@@H](CCCN2CCC(Cc3ccccc3)CC2)C(=O)N[C@@H](Cc2ccccc2)C(N)=O)C1=O [DP0007, H-Dmt-N(Me)-D-Ala-Aba-β-Ala-Bpa-Phe-NH2] (H-[Dmt][dNMeA][X1][Nva(5-(4-Bn-piperidin-1-yl))]F-NH2)	40 ± 20 nM	64 ± 6%	214 nM	12%				
Cc1cc(O)cc(C)c1C[C@H](N)C(=O)N1CCC[C@@H]1C(=O)N[C@H]1Cc2ccccc2CN(CCC(=O)N[C@@H](CCCN2CCC(Cc3ccccc3)CC2)C(=O)N[C@@H](Cc2ccccc2)C(N)=O)C1=O [DP0008, H-Dmt-D-Pro-Aba-β-Ala-Bpa-Phe-NH2] (H-[Dmt][dP][X1][Nva(5-(4-Bn-piperidin-1-yl))]F-NH2)	10.6 ± 1.3 nM	53 ± 0.7%			significant	non-detectable		
Cc1cc(O)cc(C)c1C[C@H](N)C(=O)N[C@H](CCCN1CCC(Cc2ccccc2)CC1)C(=O)N[C@H]1Cc2ccccc2CN(CCC(=O)N[C@@H](CCCN2CCC(Cc3ccccc3)CC2)C(=O)N[C@@H](Cc2ccccc2)C(N)=O)C1=O [DP0009, H-Dmt-D-Bpa-Aba-β-Ala-Bpa-Phe-NH2]	800 nM	35%						
Cc1cc(O)cc(C)c1C[C@H](N)C(=O)N[C@H](CCCNC(=N)N)C(=O)N[C@H]1Cc2ccccc2CN(CCC(=O)N[C@@H](CCCN2CCC(Cc3ccccc3)CC2)C(=O)N[C@H](Cc2ccccc2)C(N)=O)C1=O [DP0015, H-Dmt-D-Arg-Aba-β-Ala-Bpa-D-Phe-NH2]	5.9 ± 0.3 nM	109 ± 0.4%	80 nM	59%				
Cc1cc(O)cc(C)c1C[C@H](N)C(=O)N[C@H](CCCNC(=N)N)C(=O)N[C@H]1Cc2ccccc2CN(CCC(=O)N[C@@H](CCCN2CCC(Cc3ccccc3)CC2)C(=O)N[C@@H](Cc2ccccc2)C(=O)NCCC(N)=O)C1=O [DP0016, H-Dmt-D-Arg-Aba-β-Ala-Bpa-Phe-β-Ala-NH2] (H-[Dmt][dR][X1][Nva(5-(4-Bn-piperidin-1-yl))]F[βAla]-NH2)	19 nM	95%	399 nM	31%				
Cc1cc(O)cc(C)c1C[C@H](N)C(=O)N(C)[C@H](C)C(=O)N[C@H]1Cc2ccccc2CN(CCCC(=O)N[C@@H](CCCN2CCC(Cc3ccccc3)CC2)C(=O)N[C@@H](Cc2ccccc2)C(N)=O)C1=O [DP0017, H-Dmt-N(Me)-D-Ala-AbaGABA-Bpa-Phe-NH2] (H-[Dmt][dNMeA][X5][Nva(5-(4-Bn-piperidin-1-yl))]F-NH2)	14.1 nM	70%			significant	non-detectable		
Cc1cc(O)cc(C)c1C[C@H](N)C(=O)N[C@H](CCCNC(=N)N)C(=O)N[C@H]1Cc2c(ccc3ccccc23)CN(CC(=O)N[C@@H](CCCN2CCC(Cc3ccccc3)CC2)C(=O)N[C@@H](Cc2c[nH]c3ccccc23)C(N)=O)C1=O [DP0023, H-Dmt-D-Arg-1AnaGly-Bpa-Trp-NH2]		61%			significant	non-detectable	9.1 nM	
Cc1cc(O)cc(C)c1C[C@H](N)C(=O)N[C@H](CCCNC(=N)N)C(=O)N[C@@H](Cc1ccccc1)C(=O)N(C)CC(=O)N[C@@H](CCCN1CCC(Cc2ccccc2)CC1)C(=O)N[C@@H](Cc1ccccc1)C(N)=O [DP0024, H-Dmt-D-Arg-Phe-N(Me)Gly-Bpa-Phe-NH2] (HELM PEPTIDE1{[Cc1cc(O)cc(C)c1C[C@H](N)C(=O)[*:2]].[dR].F.[Sar].[O=C([C@H](CCCN1CCC(Cc2ccccc2)CC1)N[*:1])[*:2]].F.[am]}$$$$V2.0)	9.9 nM	97%	~50 nM	~95%				
Cc1cc(O)cc(C)c1C[C@H](N)C(=O)N[C@H](CCCNC(=N)N)C(=O)N[C@@H](Cc1ccccc1)C(=O)N(C)CC(=O)N[C@@H](CCCN1CCC(Cc2ccccc2)CC1)C(=O)N[C@H](C(N)=O)C(C)C [DP0025, H-Dmt-D-Arg-Phe-N(Me)Gly-Bpa-Val-NH2] (HELM PEPTIDE1{[Cc1cc(O)cc(C)c1C[C@H](N)C(=O)[*:2]].[dR].F.[Sar].[O=C([C@H](CCCN1CCC(Cc2ccccc2)CC1)N[*:1])[*:2]].V.[am]}$$$$V2.0)	7.1 nM	110%	~50 nM	~114%				
Cc1cc(O)cc(C)c1C[C@H](N)C(=O)N[C@H](CCCNC(=N)N)C(=O)N[C@H]1Cc2ccccc2CN(CCC(=O)N[C@@H](CCCN2CCc3ccccc3C2)C(=O)N[C@@H](Cc2ccccc2)C(N)=O)C1=O [DP0026, H-Dmt-D-Arg-Aba-β-Ala-THIQ-Phe-NH2]	2.4 nM	98%		~50%				
Cc1cc(O)cc(C)c1C[C@H](N)C(=O)N[C@H](CCCNC(=N)N)C(=O)N[C@H]1Cc2ccccc2CN(CCC(=O)N[C@H](CCCN2CCC(Cc3ccccc3)CC2)C(=O)N[C@@H](Cc2ccccc2)C(N)=O)C1=O [DP0027, H-Dmt-D-Arg-Aba-β-Ala-D-Bpa-Phe-NH2]	13.6 nM	95%	~180 nM	~68%				
Cc1cc(O)cc(C)c1C[C@H](N)C(=O)N[C@H](CCCN)C(=O)N[C@H]1Cc2ccccc2CN(CCC(=O)N[C@@H](CCCN2CCC(Cc3ccccc3)CC2)C(=O)N[C@@H](Cc2ccccc2)C(N)=O)C1=O [DP0028, H-Dmt-D-Orn-Aba-β-Ala-Bpa-Phe-NH2] (H-[Dmt][dOrn][X1][Nva(5-(4-Bn-piperidin-1-yl))]F-NH2)	40.4 nM	75%			significant	non-detectable		
Cc1cc(O)cc(C)c1C[C@H](N)C(=O)N[C@H](CCCCN)C(=O)N[C@H]1Cc2ccccc2CN(CCC(=O)N[C@@H](CCCN2CCC(Cc3ccccc3)CC2)C(=O)N[C@@H](Cc2ccccc2)C(N)=O)C1=O [DP0029, H-Dmt-D-Lys-Aba-β-Ala-Bpa-Phe-NH2] (H-[Dmt][dK][X1][Nva(5-(4-Bn-piperidin-1-yl))]F-NH2)	25.7 nM	72%			significant	non-detectable		
Cc1cc(O)cc(C)c1C[C@H](N)C(=O)N[C@H](CCCNC(=N)N)C(=O)N[C@@H](Cc1ccccc1)C(=O)N(C)[C@H](C)C(=O)N[C@@H](CCCN1CCC(Cc2ccccc2)CC1)C(=O)N[C@@H](Cc1ccccc1)C(N)=O [DP0030, H-Dmt-D-Arg-Phe-N(Me)-D-Ala-Bpa-Phe-NH2] (H-[Dmt][dR]F[dNMeA][Nva(5-(4-Bn-piperidin-1-yl))]F-NH2)	27.7 nM	111%	~150 nM	~85%				
N=C(N)NCCC[C@@H](NC(=O)[C@@H]1Cc2ccc(O)cc2CN1)C(=O)N[C@H]1Cc2ccccc2CN(CCC(=O)N[C@@H](CCCN2CCC(Cc3ccccc3)CC2)C(=O)N[C@@H](Cc2ccccc2)C(N)=O)C1=O [DP0031, 7-OH-Tic-D-Arg-Aba-β-Ala-Bpa-Phe-NH2] (H-[Tic(7-OH)][dR][X1][Nva(5-(4-Bn-piperidin-1-yl))]F-NH2; N-terminus assumed)	3600 nM	46%		~40%				> 500 nM
Cc1cc(O)cc(C)c1C[C@H](NC(=N)N)C(=O)N[C@H](CCCNC(=N)N)C(=O)N[C@H]1Cc2ccccc2CN(CCC(=O)N[C@@H](CCCN2CCC(Cc3ccccc3)CC2)C(=O)N[C@@H](Cc2ccccc2)C(N)=O)C1=O [DP0032, Guanidyl-Dmt-D-Arg-Aba-β-Ala-Bpa-Phe-NH2]		63%			significant	non-detectable	12.6 nM	
Cc1cc(O)cc(C)c1C[C@H](N)C(=O)N[C@H](CCCCNC(=N)N)C(=O)N[C@H]1Cc2ccccc2CN(CCC(=O)N[C@@H](CCCN2CCC(Cc3ccccc3)CC2)C(=O)N[C@@H](Cc2ccccc2)C(N)=O)C1=O [DP0033, H-Dmt-D-hArg-Aba-β-Ala-Bpa-Phe-NH2] (H-[Dmt][d(hArg)][X1][Nva(5-(4-Bn-piperidin-1-yl))]F-NH2)	24.9 nM	41%			significant	non-detectable		
Cc1cc(O)cc(C)c1C[C@H](N)C(=O)N[C@H](CCCCNC(=O)c1cccnc1)C(=O)N[C@H]1Cc2ccccc2CN(CCC(=O)N[C@@H](CCCN2CCC(Cc3ccccc3)CC2)C(=O)N[C@@H](Cc2ccccc2)C(N)=O)C1=O [DP0034, H-Dmt-D-Lys(Nic)-Aba-β-Ala-Bpa-Phe-NH2] (H-[Dmt][dK](Nicotinoyl)[X1][Nva(5-(4-Bn-piperidin-1-yl))]F-NH2)	3.9 nM	92%		~18%				5 to 50 nM
Cc1cc(O)cc(C)c1C[C@H](N)C(=O)N(CCCCN)CC(=O)N[C@H]1Cc2ccccc2CN(CCC(=O)N[C@@H](CCCN2CCC(Cc3ccccc3)CC2)C(=O)N[C@@H](Cc2ccccc2)C(N)=O)C1=O [DP0035, H-Dmt-Nlys-Aba-β-Ala-Bpa-Phe-NH2] (H-[Dmt][Nlys][X1][Nva(5-(4-Bn-piperidin-1-yl))]F-NH2)	48.4 nM	15%						
